Values after ≈ are worked out from the molar mass of the structure shown.
Legend:
[1] = molecular target: T1, Phosphatidylinositol 4,5-bisphosphate 3-kinase catalytic subunit delta isoform (Homo sapiens, UniProt O00329)
T1 sequence (O00329 whole entry): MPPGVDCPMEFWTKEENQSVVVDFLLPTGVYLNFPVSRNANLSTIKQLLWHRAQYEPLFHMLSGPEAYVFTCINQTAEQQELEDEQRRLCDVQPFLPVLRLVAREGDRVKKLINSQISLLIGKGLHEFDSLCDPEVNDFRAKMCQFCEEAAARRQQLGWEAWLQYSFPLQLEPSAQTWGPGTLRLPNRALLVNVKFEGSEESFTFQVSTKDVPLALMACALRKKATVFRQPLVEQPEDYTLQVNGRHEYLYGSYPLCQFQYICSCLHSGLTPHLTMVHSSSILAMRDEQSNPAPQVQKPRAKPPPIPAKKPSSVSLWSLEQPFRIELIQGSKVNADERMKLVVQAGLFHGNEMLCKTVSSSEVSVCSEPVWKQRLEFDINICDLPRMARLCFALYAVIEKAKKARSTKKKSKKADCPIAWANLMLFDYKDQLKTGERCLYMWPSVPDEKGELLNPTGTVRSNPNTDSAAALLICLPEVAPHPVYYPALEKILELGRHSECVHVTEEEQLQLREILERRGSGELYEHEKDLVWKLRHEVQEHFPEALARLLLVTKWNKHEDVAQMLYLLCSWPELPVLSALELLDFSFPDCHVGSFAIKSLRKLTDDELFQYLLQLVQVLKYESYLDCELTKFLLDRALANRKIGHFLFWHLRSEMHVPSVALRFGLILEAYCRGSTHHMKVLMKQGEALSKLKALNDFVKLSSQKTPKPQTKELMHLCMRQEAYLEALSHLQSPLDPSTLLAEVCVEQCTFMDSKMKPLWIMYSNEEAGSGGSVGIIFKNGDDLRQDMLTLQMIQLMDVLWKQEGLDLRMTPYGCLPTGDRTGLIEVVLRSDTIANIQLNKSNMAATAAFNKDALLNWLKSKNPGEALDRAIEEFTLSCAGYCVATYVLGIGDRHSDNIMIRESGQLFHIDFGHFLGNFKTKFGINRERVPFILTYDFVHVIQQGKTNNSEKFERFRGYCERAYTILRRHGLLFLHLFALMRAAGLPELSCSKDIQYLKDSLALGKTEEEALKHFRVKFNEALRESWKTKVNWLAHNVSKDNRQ
Description: Inhibition of PI3Kdelta using phosphatidylinositol-4,5-bisphosphate by ATP bioluminescence assay

[2] = molecular target: T2, Phosphatidylinositol 4,5-bisphosphate 3-kinase catalytic subunit beta isoform (Homo sapiens, UniProt P42338)
T2 sequence (P42338 whole entry, canonical isoform): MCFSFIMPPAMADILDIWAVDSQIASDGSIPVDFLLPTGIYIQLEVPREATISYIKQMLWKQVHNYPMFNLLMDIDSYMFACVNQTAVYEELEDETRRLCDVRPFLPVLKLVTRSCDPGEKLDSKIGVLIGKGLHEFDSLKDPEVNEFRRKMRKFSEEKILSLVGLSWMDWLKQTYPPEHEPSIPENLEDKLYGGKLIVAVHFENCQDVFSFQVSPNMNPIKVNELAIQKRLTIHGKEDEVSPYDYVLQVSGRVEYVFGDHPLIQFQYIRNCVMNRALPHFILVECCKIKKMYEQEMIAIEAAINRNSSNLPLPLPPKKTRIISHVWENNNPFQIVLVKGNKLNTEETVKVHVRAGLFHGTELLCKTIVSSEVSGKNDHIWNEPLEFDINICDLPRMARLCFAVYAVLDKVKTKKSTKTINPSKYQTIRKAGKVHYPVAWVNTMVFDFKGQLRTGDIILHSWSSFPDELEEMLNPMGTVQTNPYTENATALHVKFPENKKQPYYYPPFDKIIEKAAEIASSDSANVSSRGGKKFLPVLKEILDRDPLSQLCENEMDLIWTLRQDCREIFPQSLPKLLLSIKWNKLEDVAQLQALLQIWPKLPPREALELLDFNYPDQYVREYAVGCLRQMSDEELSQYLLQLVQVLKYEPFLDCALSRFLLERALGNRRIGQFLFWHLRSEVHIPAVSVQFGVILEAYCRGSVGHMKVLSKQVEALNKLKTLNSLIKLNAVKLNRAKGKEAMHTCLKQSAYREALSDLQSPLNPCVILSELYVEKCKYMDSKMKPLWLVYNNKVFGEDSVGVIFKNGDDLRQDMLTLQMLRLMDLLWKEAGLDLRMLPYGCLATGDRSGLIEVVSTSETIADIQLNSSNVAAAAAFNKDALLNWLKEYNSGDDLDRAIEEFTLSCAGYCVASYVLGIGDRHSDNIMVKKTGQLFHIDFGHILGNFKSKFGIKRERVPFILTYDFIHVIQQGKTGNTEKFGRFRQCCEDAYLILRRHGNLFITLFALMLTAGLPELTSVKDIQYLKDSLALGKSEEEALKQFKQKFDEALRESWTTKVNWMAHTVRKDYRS
Description: Inhibition of PI3Kbeta using phosphatidylinositol-4,5-bisphosphate by ATP bioluminescence assay

in vitro [3] = conditions: human, liver microsomes
Description: Drug metabolism in human liver microsomes at 1 uM after 30 mins

[4] = molecular target: T3, PXR (nuclear receptor subfamily 1 group I member 2) (Homo sapiens, UniProt O75469); assay: in vitro
T3 sequence (O75469 whole entry): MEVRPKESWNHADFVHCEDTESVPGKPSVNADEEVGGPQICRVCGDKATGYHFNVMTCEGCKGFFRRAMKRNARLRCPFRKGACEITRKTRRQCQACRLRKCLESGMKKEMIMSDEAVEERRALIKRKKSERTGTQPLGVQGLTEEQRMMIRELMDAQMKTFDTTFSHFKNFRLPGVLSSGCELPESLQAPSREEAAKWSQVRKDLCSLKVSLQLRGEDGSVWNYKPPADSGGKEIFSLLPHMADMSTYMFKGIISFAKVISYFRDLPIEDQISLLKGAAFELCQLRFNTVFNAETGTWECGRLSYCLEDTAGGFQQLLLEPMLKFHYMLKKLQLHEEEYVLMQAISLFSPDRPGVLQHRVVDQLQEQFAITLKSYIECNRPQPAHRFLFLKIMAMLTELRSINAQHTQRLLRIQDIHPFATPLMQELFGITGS
Description: Inhibition of human PXR assessed as activity remaining at 2 uM relative to rifampicin

in vitro [5] = conditions: rat, liver microsomes
Description: Drug metabolism in rat liver microsomes at 1 uM after 30 mins

[6] = molecular target: Phosphatidylinositol 4,5-bisphosphate 3-kinase catalytic subunit gamma isoform (Homo sapiens, UniProt P48736)
Phosphatidylinositol 4,5-bisphosphate 3-kinase catalytic subunit gamma isoform, sequence (P48736 whole entry, canonical isoform): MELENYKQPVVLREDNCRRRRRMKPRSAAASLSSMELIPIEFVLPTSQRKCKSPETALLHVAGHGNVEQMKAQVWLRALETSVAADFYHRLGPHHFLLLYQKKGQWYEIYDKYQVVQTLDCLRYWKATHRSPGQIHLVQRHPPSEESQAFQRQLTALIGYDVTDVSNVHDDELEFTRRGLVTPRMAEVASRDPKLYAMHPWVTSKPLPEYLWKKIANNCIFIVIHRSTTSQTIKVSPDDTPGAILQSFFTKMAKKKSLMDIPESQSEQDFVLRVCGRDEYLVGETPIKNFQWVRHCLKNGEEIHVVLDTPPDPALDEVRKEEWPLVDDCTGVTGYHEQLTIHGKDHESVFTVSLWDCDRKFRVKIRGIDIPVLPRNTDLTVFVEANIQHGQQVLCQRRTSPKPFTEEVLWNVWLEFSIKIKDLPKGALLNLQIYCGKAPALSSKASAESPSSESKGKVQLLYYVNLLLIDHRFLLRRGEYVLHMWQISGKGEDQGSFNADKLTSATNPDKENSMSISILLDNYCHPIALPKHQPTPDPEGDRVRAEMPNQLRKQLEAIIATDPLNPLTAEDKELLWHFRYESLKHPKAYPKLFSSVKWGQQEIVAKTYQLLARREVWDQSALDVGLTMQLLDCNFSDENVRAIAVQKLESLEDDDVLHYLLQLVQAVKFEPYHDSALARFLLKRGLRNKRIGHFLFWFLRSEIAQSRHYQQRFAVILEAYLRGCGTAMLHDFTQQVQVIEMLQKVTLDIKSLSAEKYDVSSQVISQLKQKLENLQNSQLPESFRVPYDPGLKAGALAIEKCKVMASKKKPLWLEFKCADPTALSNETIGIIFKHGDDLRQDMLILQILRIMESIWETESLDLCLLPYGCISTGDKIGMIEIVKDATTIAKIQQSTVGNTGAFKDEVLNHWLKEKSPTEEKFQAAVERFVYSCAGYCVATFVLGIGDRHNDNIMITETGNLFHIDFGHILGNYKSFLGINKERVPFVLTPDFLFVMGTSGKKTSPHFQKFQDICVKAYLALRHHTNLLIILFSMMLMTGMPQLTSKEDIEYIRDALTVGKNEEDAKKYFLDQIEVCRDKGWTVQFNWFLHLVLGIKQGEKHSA
Description: Inhibition of PI3Kgamma by ATP bioluminescence assay

[7] = molecular target: Phosphatidylinositol 4,5-bisphosphate 3-kinase catalytic subunit alpha isoform (Homo sapiens, UniProt P42336)
Phosphatidylinositol 4,5-bisphosphate 3-kinase catalytic subunit alpha isoform, sequence (P42336 whole entry, canonical isoform): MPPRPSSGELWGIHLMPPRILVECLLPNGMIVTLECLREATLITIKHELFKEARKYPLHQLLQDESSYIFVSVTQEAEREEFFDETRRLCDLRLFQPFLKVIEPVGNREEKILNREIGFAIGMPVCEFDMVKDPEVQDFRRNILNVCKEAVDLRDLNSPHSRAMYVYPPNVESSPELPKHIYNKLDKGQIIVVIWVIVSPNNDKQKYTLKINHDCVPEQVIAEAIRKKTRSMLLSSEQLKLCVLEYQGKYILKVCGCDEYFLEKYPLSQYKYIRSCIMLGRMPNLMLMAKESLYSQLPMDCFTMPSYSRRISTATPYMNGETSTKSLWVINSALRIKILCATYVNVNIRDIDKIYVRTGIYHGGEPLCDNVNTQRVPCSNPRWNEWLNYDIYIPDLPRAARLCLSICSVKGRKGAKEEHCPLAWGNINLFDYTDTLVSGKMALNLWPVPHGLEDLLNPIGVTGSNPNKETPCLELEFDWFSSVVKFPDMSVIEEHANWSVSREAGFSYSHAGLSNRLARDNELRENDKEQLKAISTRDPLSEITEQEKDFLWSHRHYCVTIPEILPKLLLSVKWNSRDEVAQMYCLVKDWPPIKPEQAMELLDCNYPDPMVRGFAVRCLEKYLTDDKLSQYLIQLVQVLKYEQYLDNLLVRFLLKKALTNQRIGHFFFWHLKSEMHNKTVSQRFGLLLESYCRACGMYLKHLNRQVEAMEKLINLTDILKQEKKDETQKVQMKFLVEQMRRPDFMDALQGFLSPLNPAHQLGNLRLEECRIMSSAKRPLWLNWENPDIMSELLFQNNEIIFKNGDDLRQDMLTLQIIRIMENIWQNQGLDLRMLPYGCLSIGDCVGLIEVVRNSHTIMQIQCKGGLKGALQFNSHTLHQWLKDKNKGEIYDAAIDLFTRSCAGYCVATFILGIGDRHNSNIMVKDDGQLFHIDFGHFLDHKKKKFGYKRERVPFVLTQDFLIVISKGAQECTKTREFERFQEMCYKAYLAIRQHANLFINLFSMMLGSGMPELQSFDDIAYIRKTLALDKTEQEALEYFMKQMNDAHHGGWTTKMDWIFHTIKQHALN
Description: Inhibition of PI3Kalpha by ATP bioluminescence assay

[8] = molecular target: T2, Phosphatidylinositol 4,5-bisphosphate 3-kinase catalytic subunit beta isoform; remark: listed apart in the source
Description: Inhibition of PI3Kbeta-mediated AKT Ser473 phosphorylation in human MDA-MB-468 cells after 120 mins by meso scale discover assay

in vivo [9] = conditions: Sprague-Dawley, rat, po, 2 mg/kg
in vivo [10] = conditions: Sprague-Dawley, rat, plasma, po, 2 mg/kg
in vivo [11] = conditions: Sprague-Dawley, rat, iv, 0.5 mg/kg
Description: Half life in Sprague-Dawley rat at 0.5 mg/kg, iv

in vivo [12] = conditions: Sprague-Dawley, rat, iv, 0.5 mg/kg; remark: listed apart in the source
Description: Volume of distribution at steady state in Sprague-Dawley rat at 0.5 mg/kg, iv

in vivo [13] = conditions: Sprague-Dawley, rat, iv, 0.5 mg/kg; remark: listed apart in the source
Description: Clearance in Sprague-Dawley rat at 0.5 mg/kg, iv

physchem [14] = conditions: phosphate buffered saline, pH 7.4
Description: Solubility of the compound in phosphate buffered saline at pH 7.4

physchem [15] = conditions: buffer, pH 7.4
Description: Lipophilicity, log D of the compound at pH 7.4

IC50 [1]	IC50 [2]	metabolised at 0.5 h, 1 µM (in vitro [3])	activity at 2 µM [4]	metabolised at 0.5 h, 1 µM (in vitro [5])	Ki [6]	Ki [2]	solubility (physchem [14])	SMILES	further results
64 nM	143 nM	64%	22%	13%				Cc1c(-c2ccccn2)nc2cc(F)ccc2c1N1CC2(CCOCC2)c2ccc(N3CCOCC3)cc21	
		47%	22%	28%	92 nM	30 nM	11 µg/mL (≈ 23.4 µM)	Cc1c(-c2ccccn2)nc2cc(F)ccc2c1N1CC(C)(C)c2ncc(N3CCOCC3)cc21	Ki [1]: 7 nM; Ki [7]: 1720 nM; IC50 [8]: 51 nM; bioavailability (in vivo [9]): 47%; AUC (in vivo [10]): 2 µM·h; half-life (in vivo [11]): 6.2 h; Vd (in vivo [12]): 5 L/kg; clearance (in vivo [13]): 16.2 mL/min/kg
					16000 nM	269 nM		Cc1c(-c2ccccn2)nc2cc(F)ccc2c1N1CC(CO)(CO)c2ccc(N3CCOCC3)cc21	Ki [7]: > 125000 nM
362 nM	60 nM	65%	14%	94%			1 µg/mL (≈ 2.58 µM)	Cc1nc2ccccc2c(N2CC(C)(C)c3ccc(N4CCOCC4)cc32)c1C	IC50 [6]: 18000 nM; IC50 [7]: 41000 nM
					7340 nM	395 nM		Cc1c(-c2ccccn2)nc2cc(F)ccc2c1N1CC2(CS(=O)(=O)C2)c2ccc(N3CCOCC3)cc21	Ki [7]: > 12500 nM
	81 nM							Cc1c(-c2ccccn2)nc2cc(F)ccc2c1N1CC(C)(C)c2ccc(-c3ccncc3)cc21	IC50 [6]: 1400 nM
	58 nM	40%	106%	34%			7.4 µg/mL (≈ 15.8 µM)	Cc1c(-c2ccccn2)nc2cc(F)ccc2c1N1CC(C)(C)c2ccc(N3CCOCC3)cc21	IC50 [6]: 2010 nM; IC50 [8]: 53 nM; logD (physchem [15]): 4.5
91 nM	105 nM	62%	103%	46%			3.2 µg/mL (≈ 6.51 µM)	Cc1c(-c2ccccc2)nc2ccccc2c1N1CC2(CCOCC2)c2ccc(N3CCOCC3)cc21	
72 nM	720 nM	52%	104%	49%			5.2 µg/mL (≈ 11.1 µM)	Cc1c(-c2ccccn2)nc2cccc(F)c2c1N1CC(C)(C)c2ccc(N3CCOCC3)cc21	
					364 nM	> 125000 nM		Cc1cc(-c2ccc3c(c2)N(c2c(C)c(-c4ccccn4)nc4cc(F)ccc24)CC3(C)C)nc(N)n1	Ki [7]: > 125000 nM
					90 nM	54 nM		Cc1c(-c2ccccn2)nc2cc(F)ccc2c1N1CC(C)(C)c2ccc(-c3ccnc(N)n3)cc21	half-life (in vivo [11]): 6.1 h; Vd (in vivo [12]): 7.5 L/kg; clearance (in vivo [13]): 26.8 mL/min/kg
450 nM	54 nM	70%	1%	71%				Cc1nc2ccccc2c(N2CC3(CCOCC3)c3ccc(N4CCOCC4)cc32)c1C	
85 nM	59 nM	42%	197%	57%			2.4 µg/mL (≈ 5.34 µM)	Cc1c(-c2ccccc2)nc2ccccc2c1N1CC(C)(C)c2ccc(N3CCOCC3)cc21	
47 nM	35 nM	47%	162%	52%			1 µg/mL (≈ 2.14 µM)	Cc1c(-c2ccccc2F)nc2ccccc2c1N1CC(C)(C)c2ccc(N3CCOCC3)cc21	
	60 nM	54%	17%	84%			1 µg/mL (≈ 2.37 µM)	Cc1nc2ccc(Cl)cc2c(N2CC(C)(C)c3ccc(N4CCOCC4)cc32)c1C	
		12%	65%	34%	28 nM	18 nM	17 µg/mL (≈ 35.6 µM)	Cc1c(-c2ccccn2)nc2cc(F)ccc2c1N1CC(C)(C)c2ncc(-c3ccnc(N)n3)cc21	IC50 [8]: 10 nM
